Reference: US7642320B2, “Polymer additives with improved permanence and surface affinity” (Ciba Specialty Chemicals Corporation, priority 2001, dated 2010)

Assay: Solubility in polar media (methanol, ambient temperature)
Type: physicochemical

## CCC(C)(C)c1cc(-n2nc3ccccc3n2)c(O)c(C(C)(C)CC)c1 [Tinuvin ® 328]
  Solubility in methanol (wt %): 0.6 wt %
